Measurements taken from patent US20230107216A1, “PANTETHEINE DERIVATIVES AND USES THEREOF” (Comet Therapeutics, Inc., priority 2018, published 2023).
Where two headings read alike, the source gives them in different places.

What was measured:
[1] = system: tyrosine hydroxylase positive mesencephalic neurons injured by MPP+; assay: Neuroprotective effect on damage induced by MPP+ on culture of mesencephalic neurons; format: cell-based; settings: Rattus norvegicus, Neuron, MPP+ 50 μM, 48h, read-out: % reversion of TH positive neurons (MPTP-mediated degradation of dopaminergic neurons)
Text: A female Wistar rat (Janvier; France) of 15 days gestation was terminated by cervical dislocation, the fetuses were removed from the uterus and their brains were harvested and placed in ice-cold medium (Leibovitz's L15 medium, Gibco). Only ventral mesencephalic flexure was used for the cell preparations. The midbrain was dissociated by trypsinization. The reaction was stopped, and the suspension was triturated and centrifuged. The pellet of dissociated cells was resuspended in chemically defined medium consisted of Neurobasal (Gibco), containing B27 supplement (Gibco) and L-glutamine (Gibco), 10 ng/ml (BDNF; Pepro Tech, France) and 1 ng/ml (GDNF; Pepro Tech).
Viable primary rat embryo mesencephalic cells were counted and seeded on 96-multi-wells plate precoated with poly-L-lysine. Cells were maintained in a humidified incubator at 37° C. in 5% CO2-95% air atmosphere and medium changed on day 2. On day 6, the culture medium was removed and replaced by new media without neurotrophic factors containing the compounds of the present disclosure (50-10 μM) or vehicle (0.1% DMSO). After 1h exposure, injury of mesencephalon neuronal cultures was induced by MPP^+ (50 μM) for further 48h. A mixture of the growth factors GDNF (1 ng/ml) and BDNF (10 ng/ml) were used as reference compound. On day 8, the tyrosine hydroxylase positive neurons were evaluated. Cultures were fixed 30 min at 4° C. with paraformaldehyde in PBS (4%, Thermo Scientific, 28908). After, cells were permeabilized with 0.1% Triton X100 for 30 min, saturated with PBS containing 3% of BSA (bovine serum albumin) and incubated 2h with anti-tyrosine hydroxylase antibody (Sigma, 1:10000; clone TH-2) at 1/10000 in PBS containing 0.5% of BSA. Cells were washed three times with PBS containing 0.5% of BSA and incubated 1h with goat anti mouse antibody coupled with AF488 (Invitrogen A11001) diluted at 1/1000 in PBS containing 0.5% of BSA. Finally, nuclei were stained with DAPI at 1/1000 in PBS containing 0.5% of BSA. After rinsing with PBS, the plate was visualized and examined with Cell Insight HCS (Thermo Scientific) to determine the number of tyrosine hydroxylase positive cells per well.
The results for each well were expressed as a percentage by setting the density of tyrosine hydroxylase positive cells under control conditions to 100%. Then the result for each condition was reported as mean±SEM from 4 independent cultures.
A global analysis of the data was performed using a one-way analysis of variance (ANOVA), followed by Fisher's Protected Least Significant Difference when applicable. The level of significance was set to p<0.05.

[2] = system: Subnormal activation of pyruvate dehydrogenase complex (PDH) primary fibroblasts GM01503 (GM1503A); assay: Total NAD+ + NADH and NAD+ (NAD/NADH-Glo), PDH fibroblasts GM01503; format: cell-based; settings: Homo sapiens, Fibroblast, 24h, read-out: Increase in Total NAD+ + NADH
Procedure: Primary adherent fibroblasts were cultured in minimum essential medium (MEM) (Gibco, 25030081) supplemented with 2 mM L-Glutamine (Gibco, 25030081), 15% fetal bovine serum (FBS) (Gibco, 26400044) and 1% penicillin/streptomycin (Gibco, 5140122) at 37° C. and 5% CO2. Cells were collected for either passaging or experiment at ˜70-80% confluence. Cells were obtained by trypsinization and seeded in cell culture microplates either white plate (Thermo Fisher Scientific, 152028) for luminescent measurement or black plate (Thermo Fisher Scientific, 165305) for fluorescent based read out for different assays listed below. Cells were obtained by trypsinization and […] were seeded and allowed to adhere for 16-18 hours to have confluency around 70-80% in the cell well with culture media. After 24 hours prior to measurements (37° C., 5% CO2) media was changed to Dulbecco's Modified Eagle Medium (DMEM, Agilent Seahorse cat #103575-100) with the appropriate supplements as stated below.
Primary fibroblasts assayed were Propionic Acidemia (PA) (GM03590 Coriell Institute for Medical Research, Tsi 6337 Trans-Hit Bio), Methylmalonic Acidemia (MMA) (Tsi 5224 Trans-Hit Bio), Subnormal activation of pyruvate dehydrogenase complex (PDH) (GM01503 Coriell Institute for Medical Research), Very long-chain acyl-CoA dehydrogenase (VLCAD) (GM17475), Leigh Syndrome (LS) (GM03672, GM13411 Coriell Institute for Medical Research), Pyruvate Carboxylase Deficiency (PC) (GM00444 Coriell Institute for Medical Research). 10 μM of Compounds were added for 2 hours in PA, MMA lines and for 24h for the other fibroblast lines.
Assay was performed according to manufacturer instructions (NAD/NADH-Glo Assay Promega, G9072). The NAD/NADH-Glo Assay is a bioluminescent assay for detecting total oxidized and reduced nicotinamide adenine dinucleotides (NAD+ and NADH, respectively) from which ratio of NAD/NADH can be calculated. Briefly, for every assay a 12-point standard curve was prepared ranging from 400 nM to 0.625 nM. Media was removed and replaced with 50 μl of PBS for both assays.
For individual NAD+ and NADH measurement, 50 μl of 1% DTAB (Sigma Cat #D5047) (cell lysis reagent) in 0.2N NaOH was added to the plate and a total 100 μl of lysate was split into two plates with 50 μl each. 25 μl of 0.4N HCl were added to the NAD+ plate and both NAD+ and NADH plate were heated at 60° C. for 15 minutes. The acid and heat treatment destroyed NADH allowing individual NAD+ measurement while heating in basic conditions destroys NAD+ allowed individual NADH measurements. The plates were allowed to come to room temperature for 10 minutes and Trizma base (Sigma, T1699) was added to the NAD+ plate to neutralize the acid and HCl Trizma hydrochloride (Sigma, T2694) was added to the NADH plate. The NADNADH glo reagent was prepared by adding: 625 μl of NAD cycling substrate, 125 μl of reductase, 125 μl of reductase substrate, 125 μl NAD cycling enzyme to total of the 25 ml of NAD GLO reagent. 1:1 ratio of total volume of reagent was added to the individual NAD+, NADH measurement (total 100 μl) and 50 μl for total NAD/NAH measurement. Luminescence was read between 30-60 minutes within the linear range.
A total dead cell count was performed as described in Example 817 and only alive cells were used for analysis.

[3] = system: Venular Endothelial cells (HUVEC) (4H system); assay: BioMAP 4H system (IL-4 and histamine); format: cell-based, human; settings: Homo sapiens, HUVEC, 24 h; 10 uM; procedure of Example 826; read-out: % decrease in VEGFRII
[4] = PDH GM1503A P10, assay condition A
[5] = PDH GM1503A P10, assay condition B

SMILES | inhibition at 10 µM [1] | activation at 10 µM [2, 4] | activation at 10 µM [2, 5] | inhibition at 10 µM [3]
CC(=O)OCC(C)(C)[C@@H](O)C(=O)NCCC(=O)NCCSC(=O)CC(=O)CCC(=O)O [Compound 140, 6-[(2-[3-[(2R)-4-(acetyloxy)-2-hydroxy-3,3-dimethylbutanamido]propanamido]ethyl)sulfanyl]-4,6-dioxohexanoic acid] | ≥ 60% | ≥ 10% | – | –
CC(=O)SCCNC(=O)CCNC(=O)[C@H](O)C(C)(C)COC(=O)CN [Compound 560, (3R)-3-[(2-[[2-(acetylsulfanyl)ethyl]carbamoyl]ethyl)carbamoyl]-3-hydroxy-2,2-dimethylpropyl 2-aminoacetate] | ≥ 30% | ≥ 10% | – | –
C[C@H](O)CC(=O)CC(=O)SCCNC(=O)CCNC(=O)[C@H](O)C(C)(C)CO [Compound 1306, (2R)-2,4-dihydroxy-N-[2-[(2-[[(5S)-5-hydroxy-3-oxohexanoyl]sulfanyl]ethyl)carbamoyl]ethyl]-3,3-dimethylbutanamide] | – | – | ≥ 10% | –
CC(=O)SCCNC(=O)CCNC(=O)[C@H](O)C(C)(C)COC(=O)[C@H](C)N [Compound 502, (3R)-3-[(2-[[2-(acetylsulfanyl)ethyl]carbamoyl]ethyl)carbamoyl]-3-hydroxy-2,2-dimethylpropyl (2S)-2-aminopropanoate] | – | – | ≥ 10% | ≥ 10%
CC(O)C(C(=O)SCCNC(=O)CCNC(=O)[C@H](O)C(C)(C)CO)C(C)O (stereo partly drawn) [Compound 1285, (2R)-2,4-dihydroxy-N-[2-[(2-[[3-hydroxy-2-(1-hydroxyethyl)butanoyl]sulfanyl]ethyl)carbamoyl]ethyl]-3,3-dimethylbutanamide] | – | ≥ 10% | – | –
CCC(=O)CC(=O)SCCNC(=O)CCNC(=O)[C@H](O)C(C)(C)CO [Compound 382, (2R)-2,4-dihydroxy-3,3-dimethyl-N-[2-([2-[(3-oxopentanoyl)sulfanyl]ethyl]carbamoyl)ethyl]butanamide] | – | ≥ 10% | – | –
CC(=O)OCC(C)(C)[C@@H](OC(C)=O)C(=O)NCCC(=O)NCCSC(C)=O [Compound 1264, (1R)-3-(acetyloxy)-1-[(2-[[2-(acetylsulfanyl)ethyl]carbamoyl]ethyl)carbamoyl]-2,2-dimethylpropyl acetate] | – | ≥ 10% | – | ≥ 10%
CC(C)(CO)[C@@H](O)C(=O)NCCC(=O)NCCSC(=O)CCCO [Compound 1304, (2R)-2,4-dihydroxy-N-[2-([2-[(4-hydroxybutanoyl)sulfanyl]ethyl]carbamoyl)ethyl]-3,3-dimethylbutanamide] | – | – | ≥ 10% | –
